{"source": "patent US6440406B1", "about": "“Attractant for monitoring and control of adult scarabs” (The United States of America as represented by the …, priority 1997, dated 2002)", "format_in_all_cases": "in vivo", "key": {"Phyllophaga crassissima": {"test_system": "Phyllophaga crassissima", "assay": "Field trap capture, Dallas, TX", "conditions": "baited traps", "description": "(§1) The mixture of all five volatile components, prepared as described in Lopez et al. (U.S. patent application Ser. No. 09/166,655, filed Oct. 5, 1998) was evaluated as an attractant for scarabs. Evaluations using the mixture in traps were conducted at various sites at Dallas, Tex., adjacent to corn or cotton fields in an agricultural area SW of College Station, Tex., and in different habitats at various locations in Mexico. The primary trap used was the Trece Catch Can with a yellow top and a green catch container obtained from Trece, Inc., Salinas, Calif. At College Station only, wire cone traps originally designed to capture noctuid moths (Hartstack et al., Jour. Econ. Entomol., 72:319-322, 1979) were also used in the evaluations. The traps were operated about 1 meter above ground level and were spaced at different distances based on the amount of space available in which to conduct the evaluations. Treatments were assigned to traps in trap lines either randomly or rotated every time the traps were checked to minimize trap location effects. Attractants for evaluation were dispensed primarily from sintered polyethylene to which the attractant was added until saturated. The sintered polyethylene was placed in various plastic containers to facilitate placing on the traps for evaluation. At College Station only, cotton dental wicks were used to dispense the attractants for evaluation by applying the attractants mixed with methylene chloride as a solvent. Traps were checked as appropriate based on the number of numbers of scarabs trapped.\n(§2) The volatile components were evaluated individually and in combination for efficacy for capturing scarabs. The evaluations were conducted as described in Example 1 near College Station, Tex., and Dallas, Tex., except that the volatile components were assayed individually as well.\n(§3) In the College Station, Tex., data, the numbers represent the frequencies or number of incidents, over the course of the study, where more than one target insect was trapped (male and female, 4 repetitions). The Dallas, Tex., data represents the numbers of males/females captured. Abbreviations for the active agents tested are as follows: Mix M=five component mixture as described in Example 1, MMB=methyl-2-methoxybenzoate, MS=methyl salicylate, PA=phenylacetaldehyde, PE=2-phenylethanol, PEG=Japanese Beetle Lure, and SL=limonene."}, "Phyllophaga congrua": {"test_system": "Phyllophaga congrua", "assay": "Field trap capture, Dallas, TX", "conditions": "baited traps", "description": "as §1, §2, §3"}, "Phyllophaga crinita": {"test_system": "Phyllophaga crinita", "assay": "Field trap capture, Dallas, TX", "conditions": "baited traps", "description": "as §1, §2, §3"}, "Cotinis nitida": {"test_system": "Cotinis nitida", "assay": "Field trap capture, College Station, TX", "conditions": "number of incidents over the study where more than one target insect was trapped (male and female, 4 repetitions)", "description": "as §1, §2, §3"}, "Euphoria sedpulcralis": {"test_system": "Euphoria sedpulcralis", "assay": "Field trap capture, College Station, TX", "conditions": "number of incidents over the study where more than one target insect was trapped (male and female, 4 repetitions)", "description": "as §1, §2, §3"}}, "data": [{"smiles": "OCCc1ccccc1", "note": "[PE, 2-phenylethanol]", "values": [{"measurement": "no. females captured", "setting": "Phyllophaga crassissima", "value": 5}, {"measurement": "no. males captured", "setting": "Phyllophaga crassissima", "value": 8}, {"measurement": "no. females captured", "setting": "Phyllophaga congrua", "value": 2}, {"measurement": "no. males captured", "setting": "Phyllophaga congrua", "value": 5}, {"measurement": "no. females captured", "setting": "Phyllophaga crinita", "value": 1}, {"measurement": "no. males captured", "setting": "Phyllophaga crinita", "value": 11}, {"measurement": "Frequencies of trapping > 1 beetle", "setting": "Cotinis nitida", "value": 2}, {"measurement": "Frequencies of trapping > 1 beetle", "setting": "Euphoria sedpulcralis", "value": 0}]}, {"smiles": "COC(=O)c1ccccc1O", "note": "[MS, methyl salicylate]", "values": [{"measurement": "no. females captured", "setting": "Phyllophaga crassissima", "value": 10}, {"measurement": "no. males captured", "setting": "Phyllophaga crassissima", "value": 6}, {"measurement": "no. females captured", "setting": "Phyllophaga congrua", "value": 0}, {"measurement": "no. males captured", "setting": "Phyllophaga congrua", "value": 4}, {"measurement": "no. females captured", "setting": "Phyllophaga crinita", "value": 0}, {"measurement": "no. males captured", "setting": "Phyllophaga crinita", "value": 23}, {"measurement": "Frequencies of trapping > 1 beetle", "setting": "Cotinis nitida", "value": 0}, {"measurement": "Frequencies of trapping > 1 beetle", "setting": "Euphoria sedpulcralis", "value": 0}]}, {"smiles": "O=CCc1ccccc1", "note": "[PA, phenylacetaldehyde]", "values": [{"measurement": "no. females captured", "setting": "Phyllophaga crassissima", "value": 3}, {"measurement": "no. males captured", "setting": "Phyllophaga crassissima", "value": 9}, {"measurement": "no. females captured", "setting": "Phyllophaga congrua", "value": 1}, {"measurement": "no. males captured", "setting": "Phyllophaga congrua", "value": 5}, {"measurement": "no. females captured", "setting": "Phyllophaga crinita", "value": 1}, {"measurement": "no. males captured", "setting": "Phyllophaga crinita", "value": 16}, {"measurement": "Frequencies of trapping > 1 beetle", "setting": "Cotinis nitida", "value": 13}, {"measurement": "Frequencies of trapping > 1 beetle", "setting": "Euphoria sedpulcralis", "value": 1}]}, {"smiles": "CC=Cc1ccc(OC)cc1", "note": "[Anethol, reference compound]", "values": [{"measurement": "no. females captured", "setting": "Phyllophaga crassissima", "value": 56}, {"measurement": "no. males captured", "setting": "Phyllophaga crassissima", "value": 79}, {"measurement": "no. females captured", "setting": "Phyllophaga congrua", "value": 3}, {"measurement": "no. males captured", "setting": "Phyllophaga congrua", "value": 0}, {"measurement": "no. females captured", "setting": "Phyllophaga crinita", "value": 0}, {"measurement": "no. males captured", "setting": "Phyllophaga crinita", "value": 14}, {"measurement": "Frequencies of trapping > 1 beetle", "setting": "Cotinis nitida", "value": 1}, {"measurement": "Frequencies of trapping > 1 beetle", "setting": "Euphoria sedpulcralis", "value": 0}]}, {"smiles": "C=C(C)[C@H]1CC=C(C)CC1", "note": "[SL, limonene]", "values": [{"measurement": "no. females captured", "setting": "Phyllophaga crassissima", "value": 3}, {"measurement": "no. males captured", "setting": "Phyllophaga crassissima", "value": 4}, {"measurement": "no. females captured", "setting": "Phyllophaga congrua", "value": 2}, {"measurement": "no. males captured", "setting": "Phyllophaga congrua", "value": 1}, {"measurement": "no. females captured", "setting": "Phyllophaga crinita", "value": 3}, {"measurement": "no. males captured", "setting": "Phyllophaga crinita", "value": 32}, {"measurement": "Frequencies of trapping > 1 beetle", "setting": "Cotinis nitida", "value": 0}, {"measurement": "Frequencies of trapping > 1 beetle", "setting": "Euphoria sedpulcralis", "value": 0}]}, {"smiles": "COC(=O)c1ccccc1OC", "note": "[MMB, methyl-2-methoxybenzoate]", "values": [{"measurement": "no. females captured", "setting": "Phyllophaga crassissima", "value": 11}, {"measurement": "no. males captured", "setting": "Phyllophaga crassissima", "value": 16}, {"measurement": "no. females captured", "setting": "Phyllophaga congrua", "value": 3}, {"measurement": "no. males captured", "setting": "Phyllophaga congrua", "value": 0}, {"measurement": "no. females captured", "setting": "Phyllophaga crinita", "value": 7}, {"measurement": "no. males captured", "setting": "Phyllophaga crinita", "value": 8627}, {"measurement": "Frequencies of trapping > 1 beetle", "setting": "Cotinis nitida", "value": 1}, {"measurement": "Frequencies of trapping > 1 beetle", "setting": "Euphoria sedpulcralis", "value": 0}]}]}
